Measured values from patent publication US8324172B2, “G protein coupled receptor agonists and antagonists and methods of activating and inhibiting G protein coupled receptors using the same” (Tufts Medical Center, Inc., priority 2000, dated 2012).
Residue numbers refer to the chain shown, from its start. “Also recorded” adds a separate entry of the source. Where a SMILES comes first, the peptide text is derived from it. Where no end group is shown, it is not given here. The star is where a group is joined. Palmitoyl = CCCCCCCCCCCCCCCC(=O)*

Tests used:
[1] = biological target: T1, MC4R (Homo sapiens, UniProt P32245); assay: Adenylate cyclase activity in COS7 fibroblasts transfected with MC4R; assay type: cell-based
T1 construct: expressed in transfected cells; host or cells: COS7, transient
T1 sequence (P32245 whole entry): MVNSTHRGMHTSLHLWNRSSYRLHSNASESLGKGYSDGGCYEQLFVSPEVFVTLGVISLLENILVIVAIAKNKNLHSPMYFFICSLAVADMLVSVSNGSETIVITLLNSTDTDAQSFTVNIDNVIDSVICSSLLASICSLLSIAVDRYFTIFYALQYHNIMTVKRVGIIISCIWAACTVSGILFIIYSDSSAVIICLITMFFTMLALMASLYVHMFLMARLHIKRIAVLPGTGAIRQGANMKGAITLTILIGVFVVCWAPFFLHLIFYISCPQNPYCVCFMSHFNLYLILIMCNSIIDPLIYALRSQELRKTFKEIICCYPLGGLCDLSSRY

[2] = tested on: untransfected Rat1 cells / COS7 cells without PAR1; assay: InsP formation in COS7 cells or Rat1 fibroblasts in the absence of the PAR1 receptor; assay type: cell-based; conditions: for InsP stimulation in the absence of the PAR1 receptor: COS7 cells or Rat1 fibroblasts
[3] = tested on: platelets; assay: Platelet intracellular Ca2+, agonist activity of peptides
[4] = tested on: human platelets
[5] = biological target: T2, substance P (Sub-P) (Homo sapiens, UniProt P25103); assay: InsP formation in COS7 cells expressing substance P receptor; assay type: cell-based
T2 construct: expressed in transfected cells; host or cells: COS7, transient
T2 sequence (P25103 whole entry): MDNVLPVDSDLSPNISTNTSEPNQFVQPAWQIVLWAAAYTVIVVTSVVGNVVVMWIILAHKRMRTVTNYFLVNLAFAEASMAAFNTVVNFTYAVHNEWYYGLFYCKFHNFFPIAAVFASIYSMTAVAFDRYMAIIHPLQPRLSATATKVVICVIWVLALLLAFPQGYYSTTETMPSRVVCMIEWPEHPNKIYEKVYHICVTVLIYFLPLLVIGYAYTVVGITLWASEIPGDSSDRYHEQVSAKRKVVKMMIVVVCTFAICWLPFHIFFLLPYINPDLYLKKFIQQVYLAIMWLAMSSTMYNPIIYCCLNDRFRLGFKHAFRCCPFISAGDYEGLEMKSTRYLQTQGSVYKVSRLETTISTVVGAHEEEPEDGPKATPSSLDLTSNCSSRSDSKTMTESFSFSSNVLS

[6] = biological target: T3, S309P PAR1 (Homo sapiens, UniProt P25116, S309P); assay: InsP formation in COS7 cells expressing S309P PAR1 mutant; assay type: cell-based; conditions: relative to wild type PAR1
T3 construct: expressed in transfected cells; host or cells: COS7, transient
T3 sequence (P25116 22-425 S309P): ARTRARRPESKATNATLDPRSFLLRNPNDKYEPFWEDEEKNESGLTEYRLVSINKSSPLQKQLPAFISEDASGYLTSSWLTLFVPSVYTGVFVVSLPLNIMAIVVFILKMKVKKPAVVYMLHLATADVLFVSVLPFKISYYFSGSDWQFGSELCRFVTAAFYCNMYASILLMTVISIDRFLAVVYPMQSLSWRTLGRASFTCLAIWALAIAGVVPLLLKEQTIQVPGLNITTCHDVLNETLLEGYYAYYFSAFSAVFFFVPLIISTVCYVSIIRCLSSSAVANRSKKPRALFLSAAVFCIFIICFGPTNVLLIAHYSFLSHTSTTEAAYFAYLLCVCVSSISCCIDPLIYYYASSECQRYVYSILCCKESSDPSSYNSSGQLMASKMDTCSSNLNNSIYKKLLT

[7] = tested on: delta377 PAR1; assay: InsP formation in COS7 cells expressing delta377 (C-tail deleted) PAR1 mutant; assay type: cell-based, human
[8] = biological target: T4, PAR1 (Homo sapiens, UniProt P25116); assay: InsP formation (PLC-β) in Rat1 fibroblasts expressing human PAR1; assay type: cell-based
T4 construct: expressed in transfected cells
T4 sequence (P25116 22-425): T3 sequence (P25116 22-425 S309P) with P288S

[9] = biological target: T5, PAR2 (Homo sapiens, UniProt P55085); assay: InsP formation in COS7 cells expressing PAR2; assay type: cell-based; conditions: 0.1-10 micromolar pepducin
T5 construct: expressed in transfected cells; host or cells: COS7 (transient)
T5 sequence (P55085 26-397): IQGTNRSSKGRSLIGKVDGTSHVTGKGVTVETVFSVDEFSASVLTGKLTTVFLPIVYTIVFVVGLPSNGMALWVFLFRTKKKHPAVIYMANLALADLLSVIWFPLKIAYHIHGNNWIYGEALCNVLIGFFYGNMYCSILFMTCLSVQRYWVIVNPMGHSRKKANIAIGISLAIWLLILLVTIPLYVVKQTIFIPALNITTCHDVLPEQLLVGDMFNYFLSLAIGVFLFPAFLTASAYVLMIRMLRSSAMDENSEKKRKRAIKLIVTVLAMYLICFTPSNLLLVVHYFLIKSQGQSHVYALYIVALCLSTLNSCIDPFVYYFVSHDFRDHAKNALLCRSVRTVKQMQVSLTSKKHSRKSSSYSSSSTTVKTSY

[10] = biological target: T6, PAR4 (Homo sapiens, UniProt Q96RI0); assay: InsP formation in COS7 cells expressing PAR4; assay type: cell-based; set-up: expressed in transfected cells; host or cells: COS7, transient; conditions: COS7 cells
T6 sequence (Q96RI0 18-385): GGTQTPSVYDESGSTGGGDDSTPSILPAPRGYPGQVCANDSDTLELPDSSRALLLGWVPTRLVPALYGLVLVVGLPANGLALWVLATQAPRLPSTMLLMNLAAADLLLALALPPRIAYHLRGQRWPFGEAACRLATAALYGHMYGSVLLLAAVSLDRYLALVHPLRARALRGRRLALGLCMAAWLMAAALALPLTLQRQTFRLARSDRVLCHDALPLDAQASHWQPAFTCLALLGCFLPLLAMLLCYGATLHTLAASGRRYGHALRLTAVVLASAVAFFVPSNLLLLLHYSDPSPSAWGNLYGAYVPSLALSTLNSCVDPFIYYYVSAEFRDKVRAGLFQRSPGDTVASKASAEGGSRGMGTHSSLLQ

[11] = biological target: T4, PAR1; assay: Inhibition of PAR1-dependent platelet Ca2+ signal; assay type: cell-based; conditions: SFLLRN (or thrombin) after peptide pre-treatment
Experimental: Platelet Ca2+ measurements were performed as in Example 1.
The integrated Ca^2+ response for the individual treatments are relative to the full Ca^2+ responses for each agonist (100%) recorded in the absence of P4pal-10 (top trace).

[12] = biological target: T7, somatostatin receptor (SSTR2) (Rattus norvegicus, UniProt P30680); assay: InsP formation in COS7 cells expressing SSTR2; assay type: cell-based; conditions: COS7 cells
T7 construct: expressed in transfected cells; host or cells: COS7, transient
T7 sequence (P30680 whole entry): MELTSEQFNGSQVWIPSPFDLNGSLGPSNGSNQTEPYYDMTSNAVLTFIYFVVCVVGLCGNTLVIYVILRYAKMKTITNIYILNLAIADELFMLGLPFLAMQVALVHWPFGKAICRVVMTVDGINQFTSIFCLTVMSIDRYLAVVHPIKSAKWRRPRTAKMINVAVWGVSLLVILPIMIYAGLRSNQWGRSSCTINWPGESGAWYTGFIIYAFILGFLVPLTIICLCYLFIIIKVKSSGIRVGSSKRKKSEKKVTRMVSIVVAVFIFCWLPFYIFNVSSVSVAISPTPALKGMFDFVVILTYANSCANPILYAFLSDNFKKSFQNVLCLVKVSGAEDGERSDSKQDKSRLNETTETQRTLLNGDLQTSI

[13] = biological target: T8, cholecystokinin B (CCKB) (Homo sapiens, UniProt P32239); assay: InsP formation in COS7 cells expressing CCKB; assay type: cell-based
T8 construct: expressed in transfected cells; host or cells: COS7, transient
T8 sequence (P32239 1-447): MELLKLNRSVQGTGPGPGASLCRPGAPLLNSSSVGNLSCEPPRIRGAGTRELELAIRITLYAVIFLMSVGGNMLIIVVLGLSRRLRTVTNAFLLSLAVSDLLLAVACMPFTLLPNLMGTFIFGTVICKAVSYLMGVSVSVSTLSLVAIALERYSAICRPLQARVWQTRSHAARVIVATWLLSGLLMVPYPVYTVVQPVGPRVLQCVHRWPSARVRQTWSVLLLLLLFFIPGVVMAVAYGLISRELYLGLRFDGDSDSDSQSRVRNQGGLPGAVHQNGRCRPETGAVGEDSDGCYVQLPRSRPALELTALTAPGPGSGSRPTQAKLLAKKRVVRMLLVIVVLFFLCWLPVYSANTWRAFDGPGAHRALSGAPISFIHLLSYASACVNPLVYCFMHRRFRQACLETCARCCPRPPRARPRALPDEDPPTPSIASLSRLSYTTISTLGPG

[14] = biological target: T9, cholecystokinin A (CCKA) (Homo sapiens, UniProt P32238); assay: InsP formation in COS7 cells expressing CCKA; assay type: cell-based
T9 construct: expressed in transfected cells; host or cells: COS7, transient
T9 sequence (P32238 1-428): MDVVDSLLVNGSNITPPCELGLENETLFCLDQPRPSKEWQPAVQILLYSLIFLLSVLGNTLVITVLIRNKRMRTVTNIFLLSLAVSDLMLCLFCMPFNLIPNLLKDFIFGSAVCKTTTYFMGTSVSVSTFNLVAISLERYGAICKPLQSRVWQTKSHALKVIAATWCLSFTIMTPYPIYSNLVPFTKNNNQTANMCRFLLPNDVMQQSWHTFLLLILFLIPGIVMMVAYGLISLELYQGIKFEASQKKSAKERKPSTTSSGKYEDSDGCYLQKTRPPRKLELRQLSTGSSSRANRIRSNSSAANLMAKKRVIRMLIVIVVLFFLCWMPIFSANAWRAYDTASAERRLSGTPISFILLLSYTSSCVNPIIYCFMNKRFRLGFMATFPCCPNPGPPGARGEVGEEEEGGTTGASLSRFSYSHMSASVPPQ

[15] = biological target: T10, P2Y12 ADP receptor (Homo sapiens, UniProt Q9H244); assay: Irreversible aggregation of SFLLRN-activated human platelets (ADP autocrine response); assay type: cell-based; conditions: 3 μM SFLLRN
T10 construct: endogenous in cells; host or cells: gel-purified human platelets
T10 sequence (Q9H244 whole entry): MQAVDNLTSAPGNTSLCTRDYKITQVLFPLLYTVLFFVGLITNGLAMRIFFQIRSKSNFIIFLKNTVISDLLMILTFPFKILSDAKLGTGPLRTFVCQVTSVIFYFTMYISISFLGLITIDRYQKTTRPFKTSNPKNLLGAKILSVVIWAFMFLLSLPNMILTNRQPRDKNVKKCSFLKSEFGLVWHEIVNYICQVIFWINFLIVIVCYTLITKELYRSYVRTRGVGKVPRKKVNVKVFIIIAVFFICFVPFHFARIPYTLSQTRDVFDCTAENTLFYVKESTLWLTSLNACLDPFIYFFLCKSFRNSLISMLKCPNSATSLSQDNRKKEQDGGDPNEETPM
Source text: Recently, the P2Y12 adenosine diphosphate (ADP) receptor was cloned by three independent groups (Hollopeter et al., Nature 409:202 (2001); Zhang et al., J. Biol. Chem. 276:8605 (2001); and Takasaki et al., Mol. Pharmacol. 60:432 (2001)) and shown to be the long-sought after target of the thienopyridine drugs clopidogrel and ticlopidine (Gachet et al., Biochem Pharmacol 40:2683 (1990); Mills et al., Arterioscler Thromb 12:430 (1992)). […] P2Y12 plays such a critical role in thrombus formation because it can modulate the strength of platelet-platelet adhesive interactions via multiple receptors such as PAR1. Inputs from P2Y12 stabilize the critical transition point of platelet-platelet aggregates during the progression from early reversible GPIIb-IIIa-fibrinogen binding to the late phase of irreversible binding to fibrinogen.
Aggregometry was performed by light scattering.

| Molecule | InsP stimulation in the absence of the PAR1 receptor [2] | agonist activity in platelet aggregation [4] | activation of Sub-P receptor (InsP) [5] | Agonist Efficacy [8] | activation of PAR2 (InsP) [9] | activation of PAR4 (InsP) [10] | activation of SSTR2 (InsP) [12] | activation of CCKA (InsP) [14] | also measured |
| --- | --- | --- | --- | --- | --- | --- | --- | --- | --- |
| CCCCCCCCCCCCCCCC(=O)N[C@H](C(=O)NCC(=O)N[C@@H](C)C(=O)N[C@H](C(=O)N[C@@H](CCCNC(=N)N)C(=O)N[C@@H](CCC(N)=O)C(=O)NCC(=O)N[C@@H](C)C(=O)N[C@@H](CC(N)=O)C(=O)N[C@@H](CCSC)C(=O)N[C@@H](CCCCN)C(=O)NCC(=O)N[C@@H](C)C(=O)N[C@H](C(N)=O)[C@@H](C)CC)[C@@H](C)CC)[C@@H](C)O [MC4pal-14] (Palmitoyl-TGAIRQGANMKGAI-NH2) | – | – | – | – | – | – | – | – | IC50 ([1]; read-out: IC50, inhibitory phase): ~10 µM; stimulation of adenylate cyclase activity (efficacy) ([1]; relative to alpha-MSH): 40% |
| CCCCCCCCCCCCCCCC(=O)N[C@@H](CCCNC(=N)N)C(=O)N[C@@H](CS)C(=O)N[C@@H](CC(C)C)C(=O)N[C@@H](CO)C(=O)N[C@@H](CO)C(=O)N[C@@H](CO)C(=O)N[C@@H](C)C(=O)N[C@H](C(=O)N[C@@H](C)C(=O)N[C@@H](CC(N)=O)C(=O)N[C@@H](CCCNC(=N)N)C(=O)N[C@@H](CO)C(=O)N[C@@H](CCCCN)C(=O)N[C@@H](CCCCN)C(=O)N[C@@H](CO)C(=O)N[C@@H](CCCNC(=N)N)C(=O)N[C@@H](C)C(=O)N[C@@H](CC(C)C)C(=O)N[C@@H](Cc1ccccc1)C(N)=O)C(C)C [Pepducin P1pal-19] (Palmitoyl-RCLSSSAVANRSKKSRALF-NH2) | approximately 11% | fully activates platelet aggregation | does not activate | 90 ± 2% | robustly activate PAR2; also recorded: can fully activate | does not activate | does not activate | does not activate | stimulation of untransfected Rat1 cells (Rat1 alone) ([2]; attributed to endogenous rat PAR1): minor stimulation; agonist activity, platelet intracellular Ca2+ [3]: causes a rapid Ca^2+i transient; EC50 ([4]; read-out: EC50 of activation of platelet aggregation): 8 ± 3 µM; loss of efficacy on S309P mutant [6]: 4.3 fold; loss of potency on S309P mutant [6]: 13 fold; stimulation of PLC-beta with delta377 PAR1 mutant [7]: effectively no stimulation of PLC-beta; inhibition of PAR1-dependent Ca2+ response [11]: completely inhibits the subsequent Ca^2+i response; stimulation of CCKB, % of its maximal activity ([13]; maximum defined by 300 nM CCK-8): about 30% |
| CCCCCCCCCCCCCCCC(=O)N[C@@H](C)C(=O)N[C@H](C(=O)N[C@@H](C)C(=O)N[C@@H](CC(N)=O)C(=O)N[C@@H](CCCNC(=N)N)C(=O)N[C@@H](CO)C(=O)N[C@@H](CCCCN)C(=O)N[C@@H](CCCCN)C(=O)N[C@@H](CO)C(=O)N[C@@H](CCCNC(=N)N)C(=O)N[C@@H](C)C(=O)N[C@@H](CC(C)C)C(=O)N[C@@H](Cc1ccccc1)C(N)=O)C(C)C [Pepducin P1pal-13] (Palmitoyl-AVANRSKKSRALF-NH2) | approximately 11% | – | did not activate | 60 − 88% | did not activate | did not activate | did not activate | did not activate | activation of CCKB (InsP) ([13]; COS7 cells): did not activate |
| Y12pal-24: pepducin based on the i3-loop of P2Y12; peptide KELYRS YVRTRGVGKVPRKKVNVF (SEQ ID NO:34) (KELYRSYVRTRGVGKVPRKKVNVF; also: palmitoyl lipid, position not given here) [Pepducin Y12pal-24] | – | no agonist activity | – | – | – | – | – | – | inhibition of irreversible platelet aggregation ([15]; 0, 1, 3, or 10 μM pepducin): effective inhibitor of irreversible platelet aggregation; efficacy of inhibition compared with apyrase ([15]; 10 μM pepducin): equivalent in efficacy as addition of saturating amounts of apyrase |
